Laboratory results from article PMC2628638, “Catalytic inhibition of topoisomerase II by a novel rationally designed ATP-competitive purine analogue” (BMC Chemical Biology, 2009).

What was measured:
topoisomerase II beta = molecular target: T1, topoisomerase II beta (Homo sapiens, UniProt Q02880); assay: Affinity precipitation with biotinylated purine analogue 2 from HL-60 nuclear extracts; format: binding; conditions: 1 μM biotinylated analogue 2; competitor in excess (10 μM), QAP 1 also at equimolar concentration
T1 construct: endogenous in cells; host or cells: HL-60 nuclear extract
T1 sequence (Q02880 whole entry): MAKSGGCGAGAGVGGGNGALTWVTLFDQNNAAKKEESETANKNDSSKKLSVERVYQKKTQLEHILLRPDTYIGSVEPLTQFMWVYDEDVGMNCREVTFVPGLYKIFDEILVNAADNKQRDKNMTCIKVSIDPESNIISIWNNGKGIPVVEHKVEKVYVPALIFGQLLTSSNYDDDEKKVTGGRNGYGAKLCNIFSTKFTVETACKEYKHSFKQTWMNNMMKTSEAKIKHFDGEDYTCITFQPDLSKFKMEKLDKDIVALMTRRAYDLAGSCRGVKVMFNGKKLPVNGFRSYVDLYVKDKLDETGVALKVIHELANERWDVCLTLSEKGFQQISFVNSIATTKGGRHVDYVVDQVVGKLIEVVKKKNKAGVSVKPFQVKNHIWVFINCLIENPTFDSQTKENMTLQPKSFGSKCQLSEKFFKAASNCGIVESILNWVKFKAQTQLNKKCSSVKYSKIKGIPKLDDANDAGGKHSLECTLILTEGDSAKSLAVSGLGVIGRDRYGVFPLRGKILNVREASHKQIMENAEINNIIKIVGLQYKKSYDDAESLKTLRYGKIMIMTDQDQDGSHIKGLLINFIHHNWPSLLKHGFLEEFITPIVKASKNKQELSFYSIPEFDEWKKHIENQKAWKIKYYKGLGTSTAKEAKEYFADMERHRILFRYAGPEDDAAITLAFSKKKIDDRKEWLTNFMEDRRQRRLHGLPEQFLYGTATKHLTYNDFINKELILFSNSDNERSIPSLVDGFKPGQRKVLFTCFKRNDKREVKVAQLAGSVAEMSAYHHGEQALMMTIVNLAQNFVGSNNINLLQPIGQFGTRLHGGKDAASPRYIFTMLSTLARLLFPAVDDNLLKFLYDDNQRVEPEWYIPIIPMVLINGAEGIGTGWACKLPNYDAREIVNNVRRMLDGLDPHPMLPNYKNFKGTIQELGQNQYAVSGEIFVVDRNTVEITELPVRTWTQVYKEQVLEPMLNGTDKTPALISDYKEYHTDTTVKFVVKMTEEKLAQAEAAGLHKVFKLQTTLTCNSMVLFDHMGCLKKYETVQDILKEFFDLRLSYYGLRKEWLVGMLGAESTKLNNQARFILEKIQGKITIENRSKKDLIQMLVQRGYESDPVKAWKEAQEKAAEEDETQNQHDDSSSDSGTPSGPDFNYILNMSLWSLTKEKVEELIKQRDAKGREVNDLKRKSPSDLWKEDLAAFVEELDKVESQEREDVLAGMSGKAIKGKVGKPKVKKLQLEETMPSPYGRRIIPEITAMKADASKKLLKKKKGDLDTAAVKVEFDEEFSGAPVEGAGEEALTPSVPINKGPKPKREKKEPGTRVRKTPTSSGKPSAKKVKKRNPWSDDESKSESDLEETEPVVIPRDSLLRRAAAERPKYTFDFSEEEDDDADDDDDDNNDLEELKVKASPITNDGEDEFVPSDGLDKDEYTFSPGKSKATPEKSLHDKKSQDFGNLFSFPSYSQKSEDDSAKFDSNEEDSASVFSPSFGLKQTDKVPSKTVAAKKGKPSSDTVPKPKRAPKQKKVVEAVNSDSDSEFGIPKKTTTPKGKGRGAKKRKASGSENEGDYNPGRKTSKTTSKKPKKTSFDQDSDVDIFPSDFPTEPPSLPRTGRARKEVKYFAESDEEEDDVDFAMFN
Experimental: (§1) Topoisomerase II α and β were affinity precipitated with biotinylated inhibitor as follows. Exponentially growing HL-60 cells were collected on ice and incubated with hypotonic buffer (10 mM HEPES pH 7.5, 1.5 mM MgCl2, 10 mM KCl, 0.5 mM DTT, 0.5 mM PMSF, 1× protease inhibitor cocktail (Complete Mini, Roche Diagnostics GmbH)) for 15 minutes, then 0.6% v/v NP-40 was added and cells were disrupted using a Dounce homogenizer. Lysates were transferred to 1.5 ml Protein LoBind Eppendorf tubes and nuclei were collected after centrifugation at 8000 rpm for 10 minutes and washed twice with hypotonic buffer. To extract and release chromatin associated topoisomerase II nuclei were incubated for 30 minutes in DNAse buffer (20 mM Tris HCl pH 7.5, 5 mM MgCl2, 1 mM CaCl2, 25 mM NaCl, 0.5 mM EDTA, 1% NP-40, 1 mM DTT, 1 × protease inhibitor cocktail, 0.1 mM PMSF) containing 40 U DNAse I (Roche Diagnostics GmbH) followed by addition of twice concentrated nuclear extraction buffer (20 mM HEPES pH 7.5, 3 mM MgCl2, 20 mM KCl, 50 mM β-glycerophosphate, 840 mM NaCl, 1 mM EDTA, 50 mM PNPP, 1 mM DTT, 1 mM PMSF) and rotation for 1 h in the coldroom. The soluble fraction was obtained following centrifugation at 13000 rpm for 15 minutes. 25 μg nuclear extract were used for the affinity precipitation. The salt concentration was adjusted to 150 mM with nuclear extraction buffer (without NaCl) and the sample volume was toped off to 200 μl with precipitation buffer (50 mM HEPES pH 7.4, 150 mM NaCl, 25 mM β-glycerophosphate, 25 mM NaF, 5 mM EGTA, 1 mM EDTA, 15 mM PPI, 1 mM PMSF). Compounds were preincubated for 30 minutes prior addition of biotinylated purine analogue 2 for 2 h. Streptavidin agarose beads (Novagen, 69203) were washed twice with PBS, blocked for 30 minutes with PBS containing 1% BSA, washed twice with PBS and finally with precipitation buffer. 40 μl equilibrated streptavidin agarose beads were added to the sample and incubation was continued for 1 h. Beads were pelleted by centrifugation at 7000 rpm for 5 minutes and washed thrice with precipitation buffer. During the last wash the beads were transferred to a new tube and the bound fraction was released by boiling for 5 minutes in Laemmli sample buffer. Topoisomerase II α and β were detected by Western blot as described below.

HL-60 cells = assay: Chromosome segregation assay (chromosome spreads); format: cell-based; conditions: 10 μM with 1 mM caffeine for 2 hours after 6 hours release
Experimental: HL-60 cells were treated overnight for 16 hours with 2 μg/ml aphidicolin (Sigma-Aldrich corporation, St. Louis, MO) and released by washing twice PBS and resuspending into fresh medium. After 6 hours release the cells were treated with 1 mM caffeine (Lancaster Synthesis, Heysham, Lancashire, UK) and with catalytic topoisomerase II inhibitor or vehicle for 2 hours. Cells were washed once with PBS and incubated with 56 mM KCl hypotonic solution for 30 minutes. Cells were pelleted and carefully resuspended in Carnoy's fixative. Cells were pelleted as above, supernatant was removed and cells were resuspended again in 2 ml fixative. Chromosome spreads were prepared by dropping 50 μl cell suspension onto microscopy slides. The slides were allowed to dry and then stained for 10 seconds in Hoechst 33342 dye (Molecular Probes, Eugene, Oregon, prepared 1:1000 in PBS from 10 mg/ml stock). After drying, mounting media (Vectashield®, Vector Laboratories, Burlingame, CA) and a cover slip were added. Samples were observed using an immersion oil lens (100 ×, Nikon, Plan Apo VC) by fluorescence microscopy (Nikon Eclipse, E600) in the DAPI channel. Images were acquired using analySIS® software (Soft Imaging System GmbH, Münster, Germany). Representative images were converted to grayscale, inverted and contrast adjusted with Adobe Photoshop. Mitotic cells were categorized as described.

BRAF-V600E = BRAF-V600E (Homo sapiens, UniProt P15056, V600E); assay: Radiometric filter binding kinase assay; format: biochemical
From the text: (§2) Based on homology structural models of the target, a purine scaffold was designed interactively using the Macromodel modeling software. The designed purine scaffold was subsequently used as a substructure query to search the Novartis compound collection. Around 50 molecules were retrieved in this manner and screened in an ATPase assay using purified full length tagged human topoisomerase II alpha. […] Subsequently, we carried out kinetic analysis with QAP 1 in order to corroborate the mode of action. […] The data were analyzed by non-linear regression analysis using the equations corresponding to competitive, uncompetitive, and mixed inhibition (see Methods) and a statistical analysis (F-test; p ≤ 0.05) was carried out to identify the best model. […] A linearized representation (Eady-Hofstee) of one of these experiments is depicted in Figure 1D. To confirm the mode of action of QAP 1, inhibition studies were also carried out in the presence of different concentration of the inhibitor at different ATP concentrations and the IC50 values were determined. […] Next, QAP 1 was tested against a panel of kinases in a radiometric assay. With the exception of subtle inhibition of the Ret and c-Src tyrosine kinases no effect of the compound was observed on other kinases in the panel, even at the highest concentration tested (Table 1). Thus, QAP 1 is a relatively potent inhibitor of topoisomerase II ATPase function with fairly good selectivity over various serine/threonine/tyrosine protein kinases. To test if QAP 1 inhibited topoisomerase II DNA strand passage activity, nuclear extracts of HL-60 leukemic cells were incubated with catenated kDNA in the presence of increasing concentrations of QAP 1.

FGFR3-K560E = assay: Radiometric filter binding kinase assay; format: biochemical
Chain of FGFR3-K560E (P22607 397-806 K560E): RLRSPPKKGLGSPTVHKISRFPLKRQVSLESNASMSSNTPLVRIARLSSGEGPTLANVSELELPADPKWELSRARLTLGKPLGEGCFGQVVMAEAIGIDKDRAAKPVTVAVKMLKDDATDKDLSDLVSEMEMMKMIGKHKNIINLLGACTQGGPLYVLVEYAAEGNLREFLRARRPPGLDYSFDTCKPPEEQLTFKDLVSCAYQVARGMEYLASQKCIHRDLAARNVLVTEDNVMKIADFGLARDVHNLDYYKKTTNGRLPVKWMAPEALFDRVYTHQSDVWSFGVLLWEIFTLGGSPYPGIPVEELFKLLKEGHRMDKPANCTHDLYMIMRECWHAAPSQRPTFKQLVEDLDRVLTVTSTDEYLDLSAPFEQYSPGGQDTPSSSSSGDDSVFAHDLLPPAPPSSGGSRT
From the text: as §2

Fak = Fak (Homo sapiens, UniProt Q05397); assay: Radiometric filter binding kinase assay; format: biochemical
From the text: as §2

Flt-3 = Flt-3 (Homo sapiens, UniProt P36888); assay: Radiometric filter binding kinase assay; format: biochemical
Chain of Flt-3 (P36888 27-993, species assumed): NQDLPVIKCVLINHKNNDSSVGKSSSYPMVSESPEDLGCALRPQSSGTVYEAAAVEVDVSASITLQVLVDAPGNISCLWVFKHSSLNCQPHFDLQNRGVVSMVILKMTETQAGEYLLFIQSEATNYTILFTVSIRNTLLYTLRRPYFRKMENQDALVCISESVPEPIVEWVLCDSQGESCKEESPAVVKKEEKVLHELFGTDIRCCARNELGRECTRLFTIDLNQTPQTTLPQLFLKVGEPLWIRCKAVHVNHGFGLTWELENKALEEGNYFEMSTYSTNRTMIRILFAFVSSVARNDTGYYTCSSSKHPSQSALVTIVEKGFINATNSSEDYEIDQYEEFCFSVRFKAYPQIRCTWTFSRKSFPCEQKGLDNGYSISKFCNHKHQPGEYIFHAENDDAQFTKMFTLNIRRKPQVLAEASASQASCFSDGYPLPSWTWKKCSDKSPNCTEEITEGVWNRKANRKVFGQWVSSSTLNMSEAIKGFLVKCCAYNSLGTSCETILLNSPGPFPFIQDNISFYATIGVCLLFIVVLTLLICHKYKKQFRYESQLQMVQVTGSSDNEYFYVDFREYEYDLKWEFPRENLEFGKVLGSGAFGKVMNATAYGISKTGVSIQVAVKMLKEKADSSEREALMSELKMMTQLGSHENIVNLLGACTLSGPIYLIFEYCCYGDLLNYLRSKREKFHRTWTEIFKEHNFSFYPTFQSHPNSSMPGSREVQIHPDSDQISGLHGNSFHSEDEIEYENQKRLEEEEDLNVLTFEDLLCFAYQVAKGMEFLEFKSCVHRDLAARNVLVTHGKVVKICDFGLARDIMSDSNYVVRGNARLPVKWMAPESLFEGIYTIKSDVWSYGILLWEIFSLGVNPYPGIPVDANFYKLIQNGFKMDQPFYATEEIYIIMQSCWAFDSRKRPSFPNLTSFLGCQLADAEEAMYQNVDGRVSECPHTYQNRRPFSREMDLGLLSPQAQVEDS
From the text: as §2

HER-1 = HER-1 (Homo sapiens, UniProt P00533); assay: Radiometric filter binding kinase assay; format: biochemical
From the text: as §2

PKB = assay: Radiometric filter binding kinase assay; format: biochemical
Chain of PKB (P31749 whole entry): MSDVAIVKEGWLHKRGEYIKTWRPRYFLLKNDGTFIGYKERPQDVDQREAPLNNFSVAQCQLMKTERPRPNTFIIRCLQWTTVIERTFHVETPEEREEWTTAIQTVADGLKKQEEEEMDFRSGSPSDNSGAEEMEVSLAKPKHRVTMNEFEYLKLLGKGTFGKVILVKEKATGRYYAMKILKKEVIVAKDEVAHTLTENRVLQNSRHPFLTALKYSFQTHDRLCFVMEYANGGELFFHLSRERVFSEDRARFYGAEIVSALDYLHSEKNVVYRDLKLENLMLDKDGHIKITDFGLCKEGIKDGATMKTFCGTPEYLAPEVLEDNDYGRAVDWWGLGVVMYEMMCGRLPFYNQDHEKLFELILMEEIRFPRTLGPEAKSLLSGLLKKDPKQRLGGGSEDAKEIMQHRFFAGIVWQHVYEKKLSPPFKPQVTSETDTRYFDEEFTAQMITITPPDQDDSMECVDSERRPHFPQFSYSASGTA
From the text: as §2

Ret = Ret (Homo sapiens, UniProt P07949); assay: Radiometric filter binding kinase assay; format: biochemical; conditions: mean of two independent experiments ± SD
From the text: as §2

Tek = Tek (Homo sapiens, UniProt Q02763); assay: Radiometric filter binding kinase assay; format: biochemical
From the text: as §2

c-Met = c-Met (Homo sapiens, UniProt P08581); assay: Radiometric filter binding kinase assay; format: biochemical
Chain of c-Met (P08581 25-1390): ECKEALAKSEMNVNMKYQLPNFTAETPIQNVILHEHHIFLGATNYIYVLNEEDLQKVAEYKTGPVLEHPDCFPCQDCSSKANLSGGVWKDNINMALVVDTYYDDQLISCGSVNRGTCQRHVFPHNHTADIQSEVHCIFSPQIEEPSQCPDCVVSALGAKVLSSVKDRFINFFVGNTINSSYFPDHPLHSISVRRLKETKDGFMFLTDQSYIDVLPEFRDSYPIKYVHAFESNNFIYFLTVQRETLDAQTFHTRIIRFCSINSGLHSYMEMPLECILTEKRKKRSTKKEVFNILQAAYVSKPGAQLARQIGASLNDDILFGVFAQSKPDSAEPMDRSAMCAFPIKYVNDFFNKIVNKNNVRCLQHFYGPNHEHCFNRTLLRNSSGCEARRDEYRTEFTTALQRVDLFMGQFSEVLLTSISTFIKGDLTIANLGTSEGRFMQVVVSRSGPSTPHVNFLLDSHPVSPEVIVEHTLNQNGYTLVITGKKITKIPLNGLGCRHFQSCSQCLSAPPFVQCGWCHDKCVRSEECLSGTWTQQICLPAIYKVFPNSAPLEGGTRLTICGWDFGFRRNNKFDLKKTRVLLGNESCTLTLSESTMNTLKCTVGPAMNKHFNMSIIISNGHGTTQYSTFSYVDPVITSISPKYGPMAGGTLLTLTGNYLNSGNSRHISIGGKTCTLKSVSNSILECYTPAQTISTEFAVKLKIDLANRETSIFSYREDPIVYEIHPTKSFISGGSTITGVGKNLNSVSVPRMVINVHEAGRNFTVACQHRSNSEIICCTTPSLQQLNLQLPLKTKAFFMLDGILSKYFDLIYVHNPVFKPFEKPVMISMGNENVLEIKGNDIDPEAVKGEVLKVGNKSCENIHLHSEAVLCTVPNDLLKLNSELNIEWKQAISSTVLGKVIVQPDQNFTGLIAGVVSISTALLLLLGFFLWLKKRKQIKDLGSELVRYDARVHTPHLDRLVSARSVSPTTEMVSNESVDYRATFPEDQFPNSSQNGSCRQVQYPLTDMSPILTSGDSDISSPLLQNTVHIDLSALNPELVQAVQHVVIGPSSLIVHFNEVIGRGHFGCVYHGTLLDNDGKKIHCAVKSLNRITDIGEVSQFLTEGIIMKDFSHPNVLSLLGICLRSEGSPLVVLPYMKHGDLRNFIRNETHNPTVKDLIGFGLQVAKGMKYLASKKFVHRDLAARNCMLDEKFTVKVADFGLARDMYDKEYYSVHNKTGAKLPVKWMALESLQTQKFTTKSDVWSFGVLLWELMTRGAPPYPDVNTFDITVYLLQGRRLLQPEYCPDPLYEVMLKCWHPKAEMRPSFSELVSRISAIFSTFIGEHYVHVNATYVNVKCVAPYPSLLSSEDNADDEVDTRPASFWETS
From the text: as §2

topoisomerase II alpha = topoisomerase II alpha (Homo sapiens, UniProt P11388); assay: Affinity precipitation with biotinylated purine analogue 2 from HL-60 nuclear extracts; format: binding; set-up: endogenous in cells; host or cells: HL-60 nuclear extract; conditions: 1 μM biotinylated analogue 2; competitor in excess (10 μM), QAP 1 also at equimolar concentration
Experimental: as §1

competition of the interaction of biotinylated purine analogue 2 with topoisomerase II beta (topoisomerase II beta): abolished
IC50 (BRAF-V600E): > 10 µM
IC50 (FGFR3-K560E): > 10 µM
IC50 (Fak): > 10 µM
IC50 (Flt-3): > 10 µM
IC50 (HER-1): > 10 µM
IC50 (PKB): > 10 µM
IC50 (Ret): 1.35 ± 0.05 µM
IC50 (Tek): > 10 µM
IC50 (c-Met): > 10 µM
competition of the interaction of biotinylated purine analogue 2 with topoisomerase II alpha (topoisomerase II alpha): abolished
Compound: CCc1nc2nc(Nc3ccc4nc(OCCN5CCOCC5)ccc4c3)nc(NC(C)(C)C)c2[nH]1 [QAP 1]
chromosome segregation at mitosis (HL-60 cells): mitosis was also severely perturbed during anaphase
